System: C57BL/6J mice on high-fat diet (prediabetes)
Experiment: Fasting blood glucose in prediabetic high-fat diet mice treated with FPZ, metformin or the combination (Example 6)
Format: in vivo
Conditions: after 2 weeks of daily oral gavage, 100 mg/kg; control gavaged with water
Experimental: The study uses 29 C57BL/6J mice, which are placed on a high-fat diet and allowed to develop prediabetes. The mice are fasted for 16 h, and the fasting blood glucose levels are measured to be greater than 105 mg/dL. The mice are divided up into control and treatment groups, and they are treated daily for 7 weeks with either 100 mg/kg FPZ, 100 mg/kg metformin, or a combination of FPZ with metformin, given by oral gavage. Fasting blood glucose are recorded at 2, 4, and 7 weeks of treatment.

CN(C)C(=N)N=C(N)N [metformin]
reduction in fasting blood glucose level compared to the control group: 24%

Source: patent US20230248785A1, “METHODS AND COMPOSITIONS FOR TREATING METABOLIC CONDITIONS” (BACTANA CORP., priority 2020, published 2023)
